Laboratory results taken from ChEMBL document CHEMBL4680224, “Discovery of pyridine tetrahydroisoquinoline thiohydantoin derivatives with low blood-brain barrier penetration as the androgen receptor antagonists” (Eur J Med Chem, 2020).
Calls of active or inactive are those of the source. The rule behind the calls is not given here.

What was measured:
LNCaP [1] = experiment: Antiproliferative activity against human LNCaP cells assessed as reduction in cel viability after 72 hrs by MTT assay; format: functional, cell-based
DU-145 = experiment: Antiproliferative activity against human DU-145 cells assessed as reduction in cel viability after 72 hrs by MTT assay; format: functional, cell-based; conditions: DU-145, 72 h
Androgen receptor = molecular target: T1, Androgen receptor (Homo sapiens, UniProt P10275); experiment: Antagonist activity at Androgen receptor (unknown origin) expressed in COS7 cells by dual luciferase reporter gene assay relative to control; format: cell-based
T1 sequence (P10275 whole entry): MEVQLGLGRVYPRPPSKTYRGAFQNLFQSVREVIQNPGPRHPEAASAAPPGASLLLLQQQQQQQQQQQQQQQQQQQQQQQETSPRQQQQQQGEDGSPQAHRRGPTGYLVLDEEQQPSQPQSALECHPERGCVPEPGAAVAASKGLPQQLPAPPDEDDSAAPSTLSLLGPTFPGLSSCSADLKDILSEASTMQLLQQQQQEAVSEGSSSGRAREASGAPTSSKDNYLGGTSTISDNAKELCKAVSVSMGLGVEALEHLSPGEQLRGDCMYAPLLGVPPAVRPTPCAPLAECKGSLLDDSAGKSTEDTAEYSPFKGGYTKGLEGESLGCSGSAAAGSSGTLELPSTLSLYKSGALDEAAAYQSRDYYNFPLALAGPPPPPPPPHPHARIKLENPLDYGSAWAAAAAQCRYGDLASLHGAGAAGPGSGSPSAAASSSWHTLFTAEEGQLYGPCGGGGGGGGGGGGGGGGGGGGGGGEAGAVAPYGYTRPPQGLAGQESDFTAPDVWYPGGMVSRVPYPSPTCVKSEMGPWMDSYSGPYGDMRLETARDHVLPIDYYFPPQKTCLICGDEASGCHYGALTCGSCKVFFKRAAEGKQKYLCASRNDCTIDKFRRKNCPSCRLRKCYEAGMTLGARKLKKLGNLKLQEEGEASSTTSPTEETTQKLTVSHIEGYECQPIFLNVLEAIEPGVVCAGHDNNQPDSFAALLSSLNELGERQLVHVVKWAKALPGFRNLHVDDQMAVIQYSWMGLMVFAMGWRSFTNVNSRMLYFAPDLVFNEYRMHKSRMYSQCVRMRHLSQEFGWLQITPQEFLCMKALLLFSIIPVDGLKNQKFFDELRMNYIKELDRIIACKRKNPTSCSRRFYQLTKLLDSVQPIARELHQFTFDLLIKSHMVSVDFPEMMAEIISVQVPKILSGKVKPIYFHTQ

LNCaP [2] = experiment: Antitumour activity against human LNCaP cells xenografted in po dosed BALB/c nude mouse assessed as reduction in tumour volume administered daily for 21 days; format: functional, organism-based; conditions: dose 15-45 mg/kg, time 21.0 day
LNCaP [3] = experiment: Antitumour activity against human LNCaP cells xenografted in po dosed BALB/c nude mouse assessed as reduction in tumour size administered daily for 21 days; format: functional, organism-based; conditions: dose 15-45 mg/kg, time 21.0 day
LNCaP [4] = experiment: Antitumour activity against human LNCaP cells xenografted in po dosed BALB/c nude mouse assessed as reduction in tumour weight administered daily for 21 days; format: functional, organism-based; conditions: dose 15-45 mg/kg, time 21.0 day
[5] = Toxicity in BALB/c mouse xenografted with LNCaP cells assessed as reduction in body weight at 15 to 45 mg/kg, po administered daily for 21 days; format: organism-based; conditions: in vivo, 504 h, dose 15-45 mg/kg, time 21 day
LNCaP [6] = experiment: Antitumour activity against human LNCaP cells xenografted in BALB/c nude mouse assessed as reduction in tumour weight at 15 mg/kg, po administered daily for 21 days relative to control; format: functional; conditions: 504 h, time 21 day, read-out: TGI
LNCaP [7] = experiment: Antitumour activity against human LNCaP cells xenografted in BALB/c nude mouse assessed as reduction in tumour weight at 30 mg/kg, po administered daily for 21 days relative to control; format: functional; conditions: 504 h, time 21 day, read-out: TGI
LNCaP [8] = experiment: Antitumour activity against human LNCaP cells xenografted in BALB/c nude mouse assessed as reduction in tumour weight at 45 mg/kg, po administered daily for 21 days relative to control; format: functional; conditions: time 21 day
[9] = Toxicity in BALB/c mouse xenografted with human LNCaP cells assessed as pathological changes in heart at 15 to 45 mg/kg, po administered daily for 21 days H and E staining based optical microscopic method; format: organism-based; conditions: in vivo, 504 h, dose 15-45 mg/kg, time 21 day
LNCaP [10] = experiment: Antitumour activity against human LNCaP cells xenografted in BALB/c nude mouse assessed as decrease in PSA level at 45 mg/kg, po administered daily for 21 days by ELISA relative to control; format: functional; set-up: scale not given: the % may be the effect or the level left; conditions: time 21 day
LNCaP [11] = experiment: Antitumour activity against human LNCaP cells xenografted in BALB/c nude mouse assessed as decrease in PSA level at 30 mg/kg, po administered daily for 21 days by ELISA relative to control; format: functional; set-up: scale not given: the % may be the effect or the level left; conditions: time 21 day
LNCaP [12] = experiment: Antitumour activity against human LNCaP cells xenografted in BALB/c nude mouse assessed as decrease in PSA level at 15 mg/kg, po administered daily for 21 days by ELISA relative to control; format: functional; set-up: scale not given: the % may be the effect or the level left; conditions: time 21 day
LNCaP [13] = experiment: Antitumour activity against human LNCaP cells xenografted in po dosed BALB/c nude mouse assessed as decrease in PSA level administered daily for 21 days by ELISA; format: functional, organism-based; conditions: dose 15-45 mg/kg, time 21.0 day
LNCaP [14] = experiment: Antitumour activity against human LNCaP cells xenografted in BALB/c nude mouse assessed as increase in karyorrhexis at 15 to 45 mg/kg, po administered daily for 21 days by H and E staining based optical microscopic method; format: functional, organism-based; conditions: dose 15-45 mg/kg, time 21.0 day
LNCaP [15] = experiment: Antitumour activity against human LNCaP cells xenografted in BALB/c nude mouse assessed as increase in necrosis at 15 to 45 mg/kg, po administered daily for 21 days by H and E staining based optical microscopic method; format: functional, organism-based; conditions: dose 15-45 mg/kg, time 21.0 day
[16] = Toxicity in BALB/c mouse xenografted with human LNCaP cells assessed as pathological changes in kidney at 15 to 45 mg/kg, po administered daily for 21 days H and E staining based optical microscopic method; format: organism-based; conditions: in vivo, 504 h, dose 15-45 mg/kg, time 21 day
[17] = Toxicity in BALB/c mouse xenografted with human LNCaP cells assessed as pathological changes in liver at 15 to 45 mg/kg, po administered daily for 21 days H and E staining based optical microscopic method; format: organism-based; conditions: in vivo, 504 h, dose 15-45 mg/kg, time 21 day
[18] = Toxicity in BALB/c mouse xenografted with human LNCaP cells assessed as pathological changes in lung at 15 to 45 mg/kg, po administered daily for 21 days H and E staining based optical microscopic method; format: organism-based; conditions: in vivo, 504 h, dose 15-45 mg/kg, time 21 day
[19] = Toxicity in BALB/c mouse xenografted with human LNCaP cells assessed as pathological changes in spleen at 15 to 45 mg/kg, po administered daily for 21 days H and E staining based optical microscopic method; format: organism-based; conditions: in vivo, 504 h, dose 15-45 mg/kg, time 21 day
[20] = Toxicity in ICR mouse assessed as reduction in body weight at 100 to 1000 mg/kg, po administered for 14 days; format: organism-based; conditions: in vivo, 336 h, dose 100-1000 mg/kg, time 14 day
[21] = Toxicity in ICR mouse assessed as pathological changes in seminal vesicle at 100 to 1000 mg/kg, po administered for 14 days by H and E staining based optical microscopic method; format: organism-based; conditions: in vivo, 336 h, dose 100-1000 mg/kg, time 14 day
[22] = Toxicity in ICR mouse assessed as pathological changes in prostate […] at 100 to 1000 mg/kg, po administered for 14 days by H and E staining based optical microscopic method; format: organism-based; conditions: in vivo, 336 h, dose 100-1000 mg/kg, time 14 day
[23] = Half life in human liver microsomes at 10 uM; format: ADME, Microsome
[24] = Stability in human liver microsomes assessed as parent compound remaining at 10 uM; format: ADME, Microsome; conditions: read-out: Stabilty
in vitro = conditions: human, liver microsomes
Description: Intrinsic clearance in human liver microsomes at 10 uM

[25] = Antagonist activity at GABAA receptor (unknown origin) by radioligand binding assay

SMILES: CCOC(=O)Nc1cc2c(cc1F)CC1C(=O)N(c3cnc(C#N)c(C(F)(F)F)c3)C(=S)N1C2 (centres undefined)
- IC50 (LNCaP [1]): 14.8 µM
- IC50 (DU-145): 94.3 µM
- IC50 (Androgen receptor): 6.17 µM
- Activity (LNCaP [2]): Dose-dependent effect
- Activity (LNCaP [3]): Dose-dependent effect
- Activity (LNCaP [4]): Dose-dependent effect
- Activity [5]: Non-Toxic
- inhibition in vivo at 15 mg/kg (LNCaP [6]): 12%
- inhibition in vivo at 30 mg/kg (LNCaP [7]): 39%
- inhibition in vivo at 45 mg/kg (LNCaP [8]; Mus musculus, LNCaP, po, 504 h, read-out: TGI): 79%
- Activity [9]: Non-Toxic
- Activity (LNCaP [10]): 73%
- Activity (LNCaP [11]): 43%
- Activity (LNCaP [12]): 24%
- Activity (LNCaP [13]): Dose-dependent effect
- Activity (LNCaP [14]): Active
- Activity (LNCaP [15]): Active
- Activity [16]: Non-Toxic
- Activity [17]: Non-Toxic
- Activity [18]: Non-Toxic
- Activity [19]: Non-Toxic
- Activity [20]: Non-Toxic
- Activity [21]: Non-Toxic
- Activity [22]: Non-Toxic
- half-life at 10 µM [23]: 261 min
- remaining at 10 µM [24]: 87.1%
- CLint scaled at 10 µM (in vitro): 7.86 mL/min/kg

SMILES: CNC(=O)c1ccc(N2C(=S)N(c3ccc(C#N)c(C(F)(F)F)c3)C(=O)C2(C)C)cc1F [ENZALUTAMIDE]
- IC50 (LNCaP [1]): 16.5 µM
- IC50 (DU-145): 49.3 µM
- TGI (LNCaP [8]): 68%
- Activity (LNCaP [10]): 57%
- IC50 [25]: 2700 nM
- half-life at 10 µM [23]: 401 min
- remaining at 10 µM [24]: 90.3%
